{
  "source": "ChEMBL document CHEMBL4680272",
  "about": "(Eur J Med Chem, 2020)",
  "assay": "Inhibition of Influenza A virus (A/California/04/2009 (H1N1-H274Y)) Neuraminidase using MUNANA as substrate preincubated for 5 to 15 mins followed by substrate addition and measured after 30 mins by fluorescence spectrophotometric method",
  "data": [
    {"smiles": "CCC(CC)O[C@@H]1C=C(C(=O)O)C[C@H](NC(N)=O)[C@H]1NC(C)=O", "values": [
      {"measurement": "IC50", "value": 667, "unit": "nM"}
    ]},
    {"smiles": "CCC(CC)O[C@@H]1C=C(C(=O)O)C[C@H](N)[C@H]1NC(C)=O", "note": "[OSELTAMIVIR CARBOXYLATE]", "values": [
      {"measurement": "IC50", "value": 4070, "unit": "nM"}
    ]}
  ]
}
